Laboratory results taken from US6525001B1, “Substituted pyrimidine and pyridine herbicides” (Mid-American Commercialization Corporation, priority 1997, dated 2003).

Assays:
Format in all cases: in vivo
Set-up in all cases: key: 0 is no effect; 10 is complete control
[1] = tested on: barnyardgrass (Echinochloa crus-galli); experiment: Test A pre-/postemergence; conditions: 0 to 10 scale
Method: (§1) Seeds of barnyardgrass (Echinochloa crus-galli), crabgrass (Digitaria spp.), morningglory (Ipomoea spp.), and velvetleaf (Abutilon theophrasti) were planted into a sandy loam soil and treated preemergence by soil drench with test chemicals formulated in a non-phytotoxic solvent mixture which includes a surfactant. At the same time, these crop and weed species were also treated postemergence sprayed to runoff, with test chemicals formulated in the same manner. Plants ranged in height from two to eighteen cm and were in the one to two leaf stage for the postemergence treatment. Treated plants and untreated controls were maintained in a greenhouse for approximately eleven days, after which all treated plants were compared to untreated controls and visually evaluated for injury. Plant response ratings, summarized in Table A, are based on a 0 to 10 scale where 0 is no effect and 10 is complete control. A dash (−) response means no test results.

[2] = tested on: crabgrass (Digitaria spp.); experiment: Test A pre-/postemergence; conditions: 0 to 10 scale
Method: as §1

[3] = tested on: morningglory (Ipomoea spp.); experiment: Test A pre-/postemergence; conditions: 0 to 10 scale
Method: as §1

[4] = tested on: velvetleaf (Abutilon theophrasti); experiment: Test A pre-/postemergence; conditions: 0 to 10 scale
Method: as §1

[5] = tested on: bedstraw (Galium aparine); experiment: Test B pre-/postemergence
Method in brief: (§2)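 Response scores run from 0, meaning no effect, to 10, meaning complete control, assigned by eye relative to controls twelve to sixteen days after spraying. Treatment was both preemergence on planted seed and postemergence on plants at the 1- to 4-leaf stage.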

[6] = tested on: blackgrass (Alopecurus myosuroides); experiment: Test B pre-/postemergence
Method in brief: as §2

[7] = tested on: broadleaf signalgrass (Brachiaria decumbens); experiment: Test B pre-/postemergence
Method in brief: as §2

[8] = tested on: cocklebur (Xanthium strumarium); experiment: Test B pre-/postemergence
Method in brief: as §2

corn (Zea mays) = experiment: Test B pre-/postemergence
Method in brief: as §2

[9] = tested on: crabgrass (Digitaria sanguinalis); experiment: Test B pre-/postemergence
Method in brief: as §2

[10] = tested on: giant foxtail (Setaria faberii); experiment: Test B pre-/postemergence
Method in brief: as §2

[11] = tested on: momingglory (Ipomoea hederacea); experiment: Test B pre-/postemergence
Method in brief: as §2

[12] = tested on: pigweed (Amaranthus retroflexus); experiment: Test B pre-/postemergence
Method in brief: as §2

[13] = tested on: purple nutsedge (Cyperus rotundus); experiment: Test B pre-/postemergence
Method in brief: as §2

rape (Brassica napus) = experiment: Test B pre-/postemergence
Method in brief: as §2

soybean (Glycine max) = experiment: Test B pre-/postemergence
Method in brief: as §2

[14] = tested on: sugar beet (Beta vulgaris); experiment: Test B pre-/postemergence
Method in brief: as §2

[15] = tested on: velvetleaf (Abutilon theophrasti); experiment: Test B pre-/postemergence
Method in brief: as §2

[16] = tested on: wheat (Triticum aestivum); experiment: Test B pre-/postemergence
Method in brief: as §2

wild oat (Avena fatua) = experiment: Test B pre-/postemergence
Method in brief: as §2

[17] = tested on: bamyardgrass (Echinochloa crus-galli); experiment: Test B flood test
Method in brief: (§3)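 Each value is a visual injury score relative to controls, with 10 meaning complete control and 0 no effect. Evaluation took place twelve to sixteen days after the 2-leaf-stage plants were treated and kept in the greenhouse.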

[18] = tested on: duck salad (Heteranthera limosa); experiment: Test B flood test
Method in brief: as §3

rice (Oryza sativa) = experiment: Test B flood test
Method in brief: as §3

[19] = tested on: smallflower flatsedge (Cyperus difformis); experiment: Test B flood test
Method in brief: as §3

[20] = PRE SOIL DRENCH, Rate 1000 g/ha
[21] = PRE SOIL DRENCH, Rate 2000 g/ha
[22] = postemergence SPRAYED TO RUNOFF, Rate 500 g/ha
[23] = postemergence SPRAYED TO RUNOFF, Rate 1000 g/ha
[24] = Preemergence, Rate 62 g/ha, scale of 0 to 10
[25] = Rate 62 g/ha, Postemergence (flood test)
[26] = Rate 125 g/ha, Postemergence section (flood test species)
[27] = Rate 250 g/ha, Postemergence (flood test species)

SMILES: Cc1cnc(-c2ccccc2)nc1Cn1cnc(C(F)(F)F)c1 [Compound 8]
- Plant response rating, Barnyardgrass [1, 20]: 4
- Plant response rating, Barnyardgrass [1, 21]: 7
- Plant response rating, Barnyardgrass [1, 22]: 3
- Plant response rating, Barnyardgrass [1, 23]: 3
- Plant response rating, Crabgrass [2, 20]: 9
- Plant response rating, Crabgrass [2, 21]: 10
- Plant response rating, Crabgrass [2, 22]: 8
- Plant response rating, Crabgrass [2, 23]: 5
- Plant response rating, Morningglory [3, 20]: 9
- Plant response rating, Morningglory [3, 21]: 8
- Plant response rating, Morningglory [3, 22]: 3
- Plant response rating, Morningglory [3, 23]: 7
- Plant response rating, Velvetleaf [4, 20]: 2
- Plant response rating, Velvetleaf [4, 21]: 3
- Plant response rating, Velvetleaf [4, 22]: 1
- Plant response rating, Velvetleaf [4, 23]: 2

SMILES: N#Cc1ccc(-c2nccc(C(=O)c3cccc(C(F)(F)F)c3)n2)cc1 [Compound 78]
- Plant response rating, Bedstraw [5, 24]: 0
- Bedstraw plant response rating ([5]; Rate 62 g/ha, Postemergence): 0
- Bedstraw plant response rating ([5]; Rate 125 g/ha, Postemergence): 0
- Plant response rating, Bedstraw ([5]; Rate 125 g/ha, Preemergence): 0
- Plant response rating, Bedstraw ([5]; Rate 250 g/ha, Postemergence): 0
- Plant response rating, Bedstraw ([5]; Rate 250 g/ha, Preemergence): 0
- Plant response rating, Blackgrass [6, 24]: 0
- Blackgrass plant response rating ([6]; Rate 62 g/ha, Postemergence): 0
- Blackgrass plant response rating ([6]; Rate 125 g/ha, Postemergence): 0
- Plant response rating, Blackgrass ([6]; Rate 125 g/ha, Preemergence): 0
- Plant response rating, Blackgrass ([6]; Rate 250 g/ha, Postemergence): 1
- Plant response rating, Blackgrass ([6]; Rate 250 g/ha, Preemergence): 0
- B. signalgrass plant response rating ([7]; Rate 62 g/ha, Postemergence): 0
- B. signalgrass plant response rating ([7]; Rate 62 g/ha, Preemergence): 0
- B. signalgrass plant response rating ([7]; Rate 125 g/ha, Postemergence): 0
- Plant response rating, B. signalgrass ([7]; Rate 125 g/ha, Preemergence): 0
- Plant response rating, B. signalgrass ([7]; Rate 250 g/ha, Postemergence): 1
- Plant response rating, B. signalgrass ([7]; Rate 250 g/ha, Preemergence): 0
- Plant response rating, Cocklebur [8, 24]: 0
- Cocklebur plant response rating ([8]; Rate 62 g/ha, Postemergence): 0
- Cocklebur plant response rating ([8]; Rate 125 g/ha, Postemergence): 0
- Plant response rating, Cocklebur ([8]; Rate 125 g/ha, Preemergence): 0
- Plant response rating, Cocklebur ([8]; Rate 250 g/ha, Postemergence): 0
- Plant response rating, Cocklebur ([8]; Rate 250 g/ha, Preemergence): 0
- Plant response rating, Corn (corn (Zea mays); [24]): 0
- Corn plant response rating (corn (Zea mays); Rate 62 g/ha, Postemergence): 0
- Corn plant response rating (corn (Zea mays); Rate 125 g/ha, Postemergence): 0
- Plant response rating, Corn (corn (Zea mays); Rate 125 g/ha, Preemergence): 0
- Plant response rating, Corn (corn (Zea mays); Rate 250 g/ha, Postemergence): 2
- Plant response rating, Corn (corn (Zea mays); Rate 250 g/ha, Preemergence): 0
- Plant response rating, Crabgrass [9, 24]: 0
- Crabgrass plant response rating ([9]; Rate 62 g/ha, Postemergence): 0
- Crabgrass plant response rating ([9]; Rate 125 g/ha, Postemergence): 0
- Plant response rating, Crabgrass ([9]; Rate 125 g/ha, Preemergence): 0
- Plant response rating, Crabgrass ([9]; Rate 250 g/ha, Postemergence): 0
- Plant response rating, Crabgrass ([9]; Rate 250 g/ha, Preemergence): 0
- Plant response rating, Giant foxtail [10, 24]: 0
- Giant foxtail plant response rating ([10]; Rate 62 g/ha, Postemergence): 0
- Giant foxtail plant response rating ([10]; Rate 125 g/ha, Postemergence): 0
- Plant response rating, Giant foxtail ([10]; Rate 125 g/ha, Preemergence): 0
- Plant response rating, Giant foxtail ([10]; Rate 250 g/ha, Postemergence): 0
- Plant response rating, Giant foxtail ([10]; Rate 250 g/ha, Preemergence): 0
- Plant response rating, Morningglory [11, 24]: 0
- Morningglory plant response rating ([11]; Rate 62 g/ha, Postemergence): 0
- Morningglory plant response rating ([11]; Rate 125 g/ha, Postemergence): 0
- Plant response rating, Morningglory ([11]; Rate 125 g/ha, Preemergence): 0
- Plant response rating, Morningglory ([11]; Rate 250 g/ha, Postemergence): 2
- Plant response rating, Morningglory ([11]; Rate 250 g/ha, Preemergence): 0
- Plant response rating, Redroot pigweed [12, 24]: 0
- Redroot pigweed plant response rating ([12]; Rate 62 g/ha, Postemergence): 0
- Redroot pigweed plant response rating ([12]; Rate 125 g/ha, Postemergence): 0
- Plant response rating, Redroot pigweed ([12]; Rate 125 g/ha, Preemergence): 0
- Plant response rating, Redroot pigweed ([12]; Rate 250 g/ha, Postemergence): 4
- Plant response rating, Redroot pigweed ([12]; Rate 250 g/ha, Preemergence): 0
- Plant response rating, Nutsedge [13, 24]: 0
- Nutsedge plant response rating ([13]; Rate 62 g/ha, Postemergence): 0
- Nutsedge plant response rating ([13]; Rate 125 g/ha, Postemergence): 0
- Plant response rating, Nutsedge ([13]; Rate 125 g/ha, Preemergence): 0
- Plant response rating, Nutsedge ([13]; Rate 250 g/ha, Postemergence): 0
- Plant response rating, Nutsedge ([13]; Rate 250 g/ha, Preemergence): 0
- Plant response rating, Rape (rape (Brassica napus); [24]): 0
- Rape plant response rating (rape (Brassica napus); Rate 62 g/ha, Postemergence): 0
- Rape plant response rating (rape (Brassica napus); Rate 125 g/ha, Postemergence): 0
- Plant response rating, Rape (rape (Brassica napus); Rate 125 g/ha, Preemergence): 0
- Plant response rating, Rape (rape (Brassica napus); Rate 250 g/ha, Postemergence): 0
- Plant response rating, Rape (rape (Brassica napus); Rate 250 g/ha, Preemergence): 0
- Plant response rating, Soybean (soybean (Glycine max); [24]): 0
- Soybean plant response rating (soybean (Glycine max); Rate 62 g/ha, Postemergence): 0
- Soybean plant response rating (soybean (Glycine max); Rate 125 g/ha, Postemergence): 0
- Plant response rating, Soybean (soybean (Glycine max); Rate 125 g/ha, Preemergence): 0
- Plant response rating, Soybean (soybean (Glycine max); Rate 250 g/ha, Postemergence): 0
- Plant response rating, Soybean (soybean (Glycine max); Rate 250 g/ha, Preemergence): 0
- Plant response rating, Sugarbeets [14, 24]: 0
- Sugarbeets plant response rating ([14]; Rate 62 g/ha, Postemergence): 0
- Sugarbeets plant response rating ([14]; Rate 125 g/ha, Postemergence): 0
- Plant response rating, Sugarbeets ([14]; Rate 125 g/ha, Preemergence): 0
- Plant response rating, Sugarbeets ([14]; Rate 250 g/ha, Postemergence): 0
- Plant response rating, Sugarbeets ([14]; Rate 250 g/ha, Preemergence): 0
- Plant response rating, Velvetleaf [15, 24]: 0
- Velvetleaf plant response rating ([15]; Rate 62 g/ha, Postemergence): 0
- Velvetleaf plant response rating ([15]; Rate 125 g/ha, Postemergence): 0
- Plant response rating, Velvetleaf ([15]; Rate 125 g/ha, Preemergence): 0
- Plant response rating, Velvetleaf ([15]; Rate 250 g/ha, Postemergence): 0
- Plant response rating, Velvetleaf ([15]; Rate 250 g/ha, Preemergence): 0
- Plant response rating, Wheat [16, 24]: 0
- Wheat plant response rating ([16]; Rate 62 g/ha, Postemergence): 0
- Wheat plant response rating ([16]; Rate 125 g/ha, Postemergence): 0
- Plant response rating, Wheat ([16]; Rate 125 g/ha, Preemergence): 0
- Plant response rating, Wheat ([16]; Rate 250 g/ha, Postemergence): 0
- Plant response rating, Wheat ([16]; Rate 250 g/ha, Preemergence): 0
- Plant response rating, Wild oats (wild oat (Avena fatua); [24]): 0
- Wild oats plant response rating (wild oat (Avena fatua); Rate 62 g/ha, Postemergence): 0
- Wild oats plant response rating (wild oat (Avena fatua); Rate 125 g/ha, Postemergence): 0
- Plant response rating, Wild oats (wild oat (Avena fatua); Rate 125 g/ha, Preemergence): 0
- Plant response rating, Wild oats (wild oat (Avena fatua); Rate 250 g/ha, Postemergence): 0
- Plant response rating, Wild oats (wild oat (Avena fatua); Rate 250 g/ha, Preemergence): 0
- Barnyardgrass plant response rating [17, 25]: 0
- Barnyardgrass plant response rating [17, 26]: 0
- Plant response rating, Barnyardgrass [17, 27]: 0
- Ducksalad plant response rating [18, 25]: 0
- Ducksalad plant response rating [18, 26]: 0
- Plant response rating, Ducksalad [18, 27]: 0
- Rice plant response rating (rice (Oryza sativa); [25]): 0
- Rice plant response rating (rice (Oryza sativa); [26]): 0
- Plant response rating, Rice (rice (Oryza sativa); [27]): 0
- S. Flatsedge plant response rating [19, 25]: 0
- S. Flatsedge plant response rating [19, 26]: 0
- Plant response rating, S. Flatsedge [19, 27]: 0
